Target: T1, xylanase II (XYN II) (Trichoderma reesei, UniProt P36217)
T1 construct: gene xyn2; native secreted enzyme purified from wheat-straw culture supernatant of T. reesei QM 9414
Test: differential scanning calorimetry
Assay type: binding
Details: 0.4 M GL, 1 mg/mL protein, 0.1 M sodium citrate pH 5, scan rate 15°C/h; absolute Tm, not a shift; control without GL 57.27°C (irreversible)
Description: differential scanning calorimetry on xylanase II (XYN II)

T1 sequence (P36217 34-223): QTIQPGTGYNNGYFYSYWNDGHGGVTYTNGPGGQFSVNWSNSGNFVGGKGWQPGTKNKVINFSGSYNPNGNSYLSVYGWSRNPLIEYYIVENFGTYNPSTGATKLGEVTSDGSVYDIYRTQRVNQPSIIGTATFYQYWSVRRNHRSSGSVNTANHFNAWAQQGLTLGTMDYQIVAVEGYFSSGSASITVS

Compound: O=C1O[C@H](CO)[C@@H](O)[C@H](O)[C@H]1O (mixture of isomers) [GL, D-glucono-1,5-lactone]
- Global: 54.1 °C

From PMC4170777, “Effect of Temperature on Xylanase II from Trichoderma reesei QM 9414: A Calorimetric, Catalytic, and Conformational Study” (Enzyme Research, 2014)
